How the values were obtained:
HIV-integrase = molecular target: T1, HIV-integrase (Human immunodeficiency virus type 1 group M subtype B, UniProt P04585); assay: HIV integrase SPA integration assay (biotin-labeled substrate DNA on streptavidin SPA beads, P33-labeled target DNA); format: biochemical; conditions: percent inhibition of HIV-integrase in the presence of 20 μM of compound
T1 construct: 0.26 ng of recombinant integrase was incubated with the beads for 90 min at 37 C
Description: For each reaction, 5 pmole of biotin labeled substrate DNA was bound to 100 ug of Streptavidin coated PVT SPA beads (Amersham Pharmacia Biotech). 0.26 ng of recombinant integrase was incubated with the beads for 90 min at 37 C. Unbound enzyme was removed by washing the complex followed by addition of inhibitors and 0.1 fmol of P33 labeled target DNA. Reaction was stopped by adding EDTA to a final concentration of 10 mM. Samples were counted in TopCountNXT (Packard) and the CPM was used as a measure of integration. Reaction condition was as described in A. Engelman and R. Craigie, J. Virol. 69, 5908–5911 (1995). The sequences of substrate and target DNA were described in Nucleic Acid Research 22, 1121–1122 (1994).

CON(Cc1ccc(F)cc1Cl)C(=O)C1=C(O)C(=O)N(C)C1 [Compound 74, 4-Hydroxy-1-methyl-5-oxo-2,5-dihydro-1H-pyrrole-3-carboxylic acid (2-chloro-4-fluoro-benzyl)-methoxy-amide]
melting point: 152 to 155 °C | inhibition at 20 µM (HIV-integrase): 97.8%

CON(Cc1ccc(C)cc1)C(=O)C1=C(O)C(=O)N(C)C1 [Compound 59, 4-Hydroxy-1-methyl-5-oxo-2,5-dihydro-1H-pyrrole-3-carboxylic acid methoxy-(4-methyl-benzyl)-amide]
melting point: 150 to 152 °C | inhibition at 20 µM (HIV-integrase): 99.9%

CN(Cc1ccc(Cl)c(Cl)c1)C(=O)C1=C(O)C(=O)N(CCC(=O)O)C1 [Compound 18, 3-[4-[(3,4-dichloro-benzyl)-methyl-carbamoyl]-3-hydroxy-2-oxo-2,5-dihydro-pyrrol-1-yl]-propionic acid]
melting point: 183 to 184 °C | inhibition at 20 µM (HIV-integrase): 99.9%

CON(Cc1ccccc1F)C(=O)C1=C(O)C(=O)N(C)C1 [Compound 50, 4-Hydroxy-1-methyl-5-oxo-2,5-dihydro-1H-pyrrole-3-carboxylic acid (2-fluoro-benzyl)-methoxy-amide]
melting point: 147 °C (dec.) | inhibition at 20 µM (HIV-integrase): 92%

CN(C)C(=O)CON(Cc1ccc(F)cc1)C(=O)C1=C(O)C(=O)N(C)C1 [Compound 72, 4-Hydroxy-1-methyl-5-oxo-2,5-dihydro-1H-pyrrole-3-carboxylic acid dimethylcarbamoylmethoxy-(4-fluoro-benzyl)-amide]
melting point: 147 to 149 °C | inhibition at 20 µM (HIV-integrase): 98.8%

CN(Cc1ccc(Cl)c(Cl)c1)C(=O)C1=C(O)C(=O)N(CC(=O)O)C1 [Compound 20, {4-[(3,4-Dichloro-benzyl)-methyl-carbamoyl]-3-hydroxy-2-oxo-2,5-dihydro-pyrrol-1-yl}-acetic acid]
melting point: 178 to 180 °C | inhibition at 20 µM (HIV-integrase): 99.9%

CON(Cc1ccc(C#N)cc1)C(=O)C1=C(O)C(=O)N(C)C1 [Compound 62, 4-Hydroxy-1-methyl-5-oxo-2,5-dihydro-1H-pyrrole-3-carboxylic acid (4-cyano-benzyl)-methoxy-amide]
melting point: 161 °C (dec.) | inhibition at 20 µM (HIV-integrase): 97.7%

CON(Cc1ccccc1C)C(=O)C1=C(O)C(=O)N(C)C1 [Compound 56, 4-Hydroxy-1-methyl-5-oxo-2,5-dihydro-1H-pyrrole-3-carboxylic acid methoxy-(2-methyl-benzyl)-amide]
melting point: 153 to 154 °C | inhibition at 20 µM (HIV-integrase): 88%

CON(Cc1ccc(F)c(Br)c1)C(=O)C1=C(O)C(=O)N(C)C1 [Compound 57, 4-Hydroxy-1-methyl-5-oxo-2,5-dihydro-1H-pyrrole-3-carboxylic acid (3-bromo-4-fluoro-benzyl)-methoxy-amide]
melting point: 154 to 157 °C (dec.) | inhibition at 20 µM (HIV-integrase): 99.9%

CCON(Cc1ccc(F)cc1)C(=O)C1=C(O)C(=O)N(C)C1 [Compound 53, 4-Hydroxy-1-methyl-5-oxo-2,5-dihydro-1H-pyrrole-3-carboxylic acid ethoxy-(4-fluoro-benzyl)-amide]
melting point: 113 to 114 °C | inhibition at 20 µM (HIV-integrase): 99%

CON(Cc1ccc(C)c(F)c1)C(=O)C1=C(O)C(=O)N(C)C1 [Compound 65, 4-Hydroxy-1-methyl-5-oxo-2,5-dihydro-1H-pyrrole-3-carboxylic acid (3-fluoro-4-methyl-benzyl)-methoxy-amide]
melting point: 145 °C | inhibition at 20 µM (HIV-integrase): 99.9%

CON(Cc1ccc(NC(C)=O)cc1)C(=O)C1=C(O)C(=O)N(C)C1 [Compound 63, 4-Hydroxy-1-methyl-5-oxo-2,5-dihydro-1H-pyrrole-3-carboxylic acid (4-acetylamino-benzyl)-methoxy-amide]
melting point: 110 °C | inhibition at 20 µM (HIV-integrase): 12%

CON(Cc1cccc(F)c1)C(=O)C1=C(O)C(=O)N(C)C1 [Compound 49, 4-Hydroxy-1-methyl-5-oxo-2,5-dihydro-1H-pyrrole-3-carboxylic acid (3-fluoro-benzyl)-methoxy-amide]
melting point: 119 °C (dec.) | inhibition at 20 µM (HIV-integrase): 98.5%

CON(CCc1ccc(F)cc1)C(=O)C1=C(O)C(=O)N(C)C1 [Compound 52, 4-Hydroxy-1-methyl-5-oxo-2,5-dihydro-1H-pyrrole-3-carboxylic acid [2-(4-fluoro-phenyl)-ethyl]-methoxy-amide]
melting point: 157 °C (dec.) | inhibition at 20 µM (HIV-integrase): 86%

CN1CC(C(=O)N(Cc2ccc(F)cc2)OCC(=O)OC(C)(C)C)=C(O)C1=O [Compound 70]
melting point: 128 to 130 °C | inhibition at 20 µM (HIV-integrase): 99.8%

CON(C(=O)C1=C(O)C(=O)N(C)C1)C(C)c1ccc(F)cc1 (centres unmarked) [Compound 69, 4-Hydroxy-1-methyl-5-oxo-2,5-dihydro-1H-pyrrole-3-carboxylic acid [1-(4-fluoro-phenyl)-ethyl]-methoxy-amide]
melting point: 136 to 138 °C | inhibition at 20 µM (HIV-integrase): 97%

From patent publication US7109186B2 (Bristol-Myers Squibb Company, priority 2002, dated 2006)
